Among the test systems are HL-60; HCT-15; MOLT-4; K562; A498; SNB-19; Malme-3M; HCC 2998; CAKI-1; SF-268; LOX IMVI; M19-MEL; ACHN; SNB-75; 786-0; KM12; HOP-92.
Holding throughout (assay): NCI anticancer screen, dose series, 48 h

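Cells were grown in 96-well plates and exposed to each compound for 48 hours at five concentrations; endpoints were interpolated linearly between bracketing concentrations, or set to the highest concentration if not reached. GI50: concentration for 50% inhibition of growth.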 Calls of active or inactive are those of the source. No stated cut-off is given here; in the data, active = GI50 up to about 1.1 µM and inactive = higher. Where only a bound is given, the exact number is not on record here.

For `CCc1ccccc1NC(=O)/C(=N/O)C(C)=O`, the GI50 is > 100 µM (inactive) in the experiment on HL-60; greater than 100 µM with HCT-15; > 100 µM (inactive) in the experiment on MOLT-4; > 100 µM (inactive) in the experiment on K562; > 100 µM (inactive) in the experiment on A498; > 100 µM (inactive) with SNB-19. Also, the GI50 in the experiment with Malme-3M, in the experiment with HCC 2998, in the experiment with CAKI-1, in the experiment on SF-268, in the experiment with LOX IMVI and in the experiment with M19-MEL was > 100 µM (inactive) throughout. The GI50 with ACHN, in the experiment with SNB-75, in the experiment with 786-0 and with KM12 was > 100 µM (inactive) in each case.
For the molecule `CC1CCCP(=O)(c2ccccc2)CCC1` (stereo unspecified), the GI50 in the experiment on HL-60 is > 100 µM (inactive); in the experiment with HCT-15, greater than 100 µM; in the experiment with MOLT-4 it was > 100 µM (inactive); in the experiment with K562, > 100 µM (inactive); with A498, > 100 µM (inactive); in the experiment with SNB-19, > 100 µM (inactive). Also, the GI50 in the experiment with Malme-3M, in the experiment on HCC 2998, with CAKI-1, in the experiment with SF-268, in the experiment on LOX IMVI and with M19-MEL was > 100 µM (inactive) each time. Besides, the GI50 in the experiment on ACHN, with SNB-75, with 786-0 and in the experiment with KM12 was > 100 µM (inactive) throughout.
Regarding `COc1cc(CCCC(O)COc2cccc3c2C2(O)CCCCCC32)cc(OC)c1` (stereo unspecified), the GI50 with HL-60 is 22.2 µM (inactive); in the experiment on HCT-15, 17.6 µM; in the experiment on HOP-92, 4.75 µM (inactive); in the experiment with MOLT-4 it was 17.7 µM (inactive); in the experiment on K562, 11.6 µM (inactive); in the experiment with A498, 19.9 µM (inactive). For the same molecule, the GI50 is 17.8 µM (inactive) in the experiment on SNB-19; 16 µM (inactive) in the experiment with Malme-3M; 4.97 µM (inactive) in the experiment with HCC 2998; 20.8 µM (inactive) with CAKI-1; 17.9 µM (inactive) in the experiment on SF-268; 17 µM (inactive) in the experiment on M19-MEL. Moreover, the GI50 with ACHN was 15.7 µM (inactive); with SNB-75, 12.1 µM (inactive); with 786-0, 15.1 µM (inactive); in the experiment with KM12, 17.2 µM (inactive).
In the case of `COc1cccc(NC(=O)CC(=O)N2NC(C)C(/N=N/c3cccc(C(=O)O)c3)C2=O)c1` (stereo unspecified), the GI50 in the experiment on HOP-92, in the experiment on MOLT-4, in the experiment with K562, with A498, with SNB-19 and with Malme-3M was > 100 µM (inactive) each time. Besides, the GI50 in the experiment on HCC 2998, in the experiment on CAKI-1, in the experiment with SF-268, with LOX IMVI, in the experiment on M19-MEL and in the experiment with ACHN was > 100 µM (inactive) each time. The GI50 with SNB-75, with 786-0 and in the experiment on KM12 was > 100 µM (inactive) in each case.
As to `CC(=O)OCC1OC(OC2C(COC(C)=O)OC(Sc3ccccc3C)C(OC(C)=O)C2OC(C)=O)C(OC(C)=O)C(OC(C)=O)C1OC(C)=O` (stereo unspecified), the GI50 was greater than 100 µM in the experiment on HCT-15; 55 µM (inactive) in the experiment on HOP-92; > 100 µM (inactive) in the experiment on MOLT-4; > 100 µM (inactive) in the experiment with K562; > 100 µM (inactive) with A498; > 100 µM (inactive) with SNB-19. Also, the GI50 in the experiment on Malme-3M, in the experiment with HCC 2998, in the experiment with CAKI-1, with SF-268, with M19-MEL and in the experiment with ACHN was > 100 µM (inactive) throughout. In addition, the GI50 in the experiment with SNB-75, in the experiment on 786-0 and in the experiment on KM12 was > 100 µM (inactive) throughout.
Take `N=C(c1ccccc1)N(c1ccccc1)c1ccccc1`: the GI50 is 20.8 µM (inactive) in the experiment on HL-60; < 0.01 µM (active) in the experiment with HOP-92; > 100 µM (inactive) in the experiment on SNB-19; 23.4 µM (inactive) with Malme-3M; > 100 µM (inactive) in the experiment with HCC 2998; > 100 µM (inactive) with CAKI-1. Further, the GI50 is 48.6 µM (inactive) in the experiment on SF-268; 18.2 µM (inactive) in the experiment on LOX IMVI; > 100 µM (inactive) in the experiment on M19-MEL; > 100 µM (inactive) in the experiment with SNB-75; 28.1 µM (inactive) in the experiment on 786-0; 25.2 µM (inactive) in the experiment on KM12.
Regarding `CCOC(=O)/C(C(C)=O)=C1/N[C@H](C(=O)OCC)CS1`, the GI50 is > 100 µM (inactive) in the experiment with HL-60; greater than 100 µM with HCT-15; > 100 µM (inactive) with MOLT-4; > 100 µM (inactive) in the experiment on K562; > 100 µM (inactive) in the experiment with SNB-19; > 100 µM (inactive) with Malme-3M. Also, the GI50 in the experiment with HCC 2998, in the experiment with CAKI-1, in the experiment with SF-268, with LOX IMVI, in the experiment with M19-MEL and with ACHN was > 100 µM (inactive) throughout. Further, the GI50 with SNB-75, in the experiment on 786-0 and in the experiment on KM12 was > 100 µM (inactive) throughout.
Take `CC(=O)O[C@@]1(C)[C@@H](C)C(=O)O[C@@H]2CCN3CC=C(COC(=O)[C@]1(C)O)[C@H]23`: the GI50 in the experiment on HL-60 is > 100 µM (inactive); with HCT-15, greater than 100 µM; in the experiment on HOP-92, > 100 µM (inactive); in the experiment with MOLT-4 it was > 100 µM (inactive); with K562 it was > 100 µM (inactive); in the experiment with SNB-19, > 100 µM (inactive). In addition, the GI50 in the experiment with Malme-3M, in the experiment on HCC 2998, in the experiment on CAKI-1, with SF-268, with M19-MEL and in the experiment on ACHN was > 100 µM (inactive) in each case. Further, the GI50 was 41 µM (inactive) in the experiment with SNB-75, > 100 µM (inactive) with 786-0 and > 100 µM (inactive) in the experiment with KM12.
As to `CC1(C)N=C(c2ccccn2)C(c2ccccn2)=NC1(C)C`, the GI50 is > 100 µM (inactive) with HL-60; greater than 100 µM with HCT-15; > 100 µM (inactive) in the experiment with HOP-92; > 100 µM (inactive) in the experiment with MOLT-4; > 100 µM (inactive) in the experiment on K562; > 100 µM (inactive) in the experiment on A498. In addition, the GI50 in the experiment with SNB-19, in the experiment on Malme-3M, with HCC 2998, in the experiment on CAKI-1, in the experiment on SF-268 and with LOX IMVI was > 100 µM (inactive) each time. Also, the GI50 in the experiment with M19-MEL, in the experiment with ACHN, with 786-0 and with KM12 was > 100 µM (inactive) in each case.
Consider `COc1ccccc1NC(=O)CC(=O)N1N=C(c2ccccc2)C(/N=N/c2ccc(Cl)cc2)C1=O` (stereo unspecified), for which the GI50 was 52 µM (inactive) with HL-60; 58.6 µM with HCT-15; 41.1 µM (inactive) in the experiment with MOLT-4; 29 µM (inactive) in the experiment on K562; 15.2 µM (inactive) with A498; 36 µM (inactive) in the experiment with SNB-19. Moreover, the GI50 is 45.6 µM (inactive) in the experiment with HCC 2998; 19.5 µM (inactive) with CAKI-1; 50.2 µM (inactive) with SF-268; 22.9 µM (inactive) in the experiment with LOX IMVI; 57.1 µM (inactive) in the experiment on M19-MEL; 19.2 µM (inactive) in the experiment on ACHN. Also, the values for the GI50 in the experiment on SNB-75, in the experiment with 786-0 and in the experiment with KM12 were 19.7 µM (inactive), 13.9 µM (inactive) and 49.5 µM (inactive), respectively.
In the case of `NC(=O)C(c1ccccc1)N1CCOCC1` (stereo unspecified), the GI50 is > 100 µM (inactive) in the experiment on HL-60; greater than 100 µM in the experiment on HCT-15; > 100 µM (inactive) in the experiment with HOP-92; > 100 µM (inactive) in the experiment on MOLT-4; > 100 µM (inactive) in the experiment on K562; > 100 µM (inactive) in the experiment on A498. The GI50 with Malme-3M, with CAKI-1, in the experiment on SF-268, in the experiment on LOX IMVI, with M19-MEL and in the experiment on ACHN was > 100 µM (inactive) throughout. Also, the GI50 with SNB-75, in the experiment on 786-0 and with KM12 was > 100 µM (inactive) throughout.
With `Nc1c2ccccc2nc2c(C(=O)Nc3ccc(S(N)(=O)=O)cc3)cccc12`, the GI50 in the experiment with HCT-15 is greater than 100 µM; in the experiment with MOLT-4, 11.1 µM (inactive); with K562 it was 28.6 µM (inactive); in the experiment with A498, > 100 µM (inactive); in the experiment with SNB-19, 92.3 µM (inactive); with Malme-3M, 74 µM (inactive). Also, the GI50 with HCC 2998 was > 100 µM (inactive); with CAKI-1, > 100 µM (inactive); in the experiment on SF-268, 42.3 µM (inactive); in the experiment with LOX IMVI, 40.1 µM (inactive); in the experiment on M19-MEL it was 60 µM (inactive); in the experiment with ACHN, > 100 µM (inactive). For the same molecule, the GI50 is 61.8 µM (inactive) in the experiment on SNB-75, > 100 µM (inactive) in the experiment on 786-0 and 32.1 µM (inactive) with KM12.
`COC(=O)[C@]12CCC(C)[C@H](C)[C@H]1C1=CCC3[C@@]4(C)CC[C@H](OC(C)=O)C(C)(C)C4CC[C@@]3(C)C1(C)C(O)C2` (stereo partly specified): the GI50 with HOP-92 was > 100 µM (inactive); with MOLT-4, 86.5 µM (inactive); in the experiment with K562 it was 89.1 µM (inactive); in the experiment on A498, > 100 µM (inactive); with SNB-19, > 100 µM (inactive); in the experiment on Malme-3M, > 100 µM (inactive). The GI50 in the experiment on HCC 2998 is > 100 µM (inactive); with CAKI-1, > 100 µM (inactive); with SF-268, > 100 µM (inactive); in the experiment with LOX IMVI it was 74 µM (inactive); in the experiment with M19-MEL, > 100 µM (inactive); in the experiment with ACHN it was > 100 µM (inactive). The GI50 in the experiment with SNB-75 was 45.2 µM (inactive); in the experiment on 786-0, > 100 µM (inactive); in the experiment with KM12, > 100 µM (inactive).
